The target of one data set is T1, NK-1 receptor (Homo sapiens, UniProt P25103).
T1 construct: host or cells: U2OS (Tango TACR1-bla)
Description: Tango GPCR cell-based assay, TACR1-bla U2OS cells, NK-1 receptor inhibitors. Conditions: 1 nM SAR9 Substance P agonist. Here is the method: Various known high through-put screening assays can also be used to determine the inhibitory effects of a material on the NK-1 receptors.
One exemplary assay is the Tango™ G-Protein Coupled Receptors (GPCR) cell-based assays by Invitrogen. First, TACR1-bla U2OS cells (from Invitrogen) are cultured in McCoy's medium. The cultured cells are then plated in DMEM into 96-well plates (15,125 cells/well in 90 uL/well). After 16-24 hours, the cells are treated with test materials or positive control antagonist (which is 100 nM Aprepitant) and then incubated for 30-60 minutes at 37° C. in 5% CO2. Subsequently, the cells are treated with 1 nM SAR9 Substance P agonist and incubated again for 5 hours at 37° C. in 5% CO2. The plates are removed from the incubator and equilibrated at room temperature for 15 minutes. During the equilibration step, the LiveBlazer substrate detection solution (from Invitrogen) is prepared. Six times of substrate mixture is added to each well, followed by incubating the plates in the dark at room temp for 2 hours. The plates are read by the Envision microplate reader in 2 channels using the “Geneblazer 451” protocol, which include a blue channel (Excitement at 405 and Emission at 460) and a green channel (Excitement at 405 and Emission at 535).
FIGS. 45-70 show the NK-1 dosage response curves of compounds described hereinabove with high NK-1 inhibitory effect.

The next data set concerns the target T2, h5HT3A receptor (Homo sapiens, UniProt P46098).
T2 construct: expressed in transfected cells
T2 sequence (P46098 24-478): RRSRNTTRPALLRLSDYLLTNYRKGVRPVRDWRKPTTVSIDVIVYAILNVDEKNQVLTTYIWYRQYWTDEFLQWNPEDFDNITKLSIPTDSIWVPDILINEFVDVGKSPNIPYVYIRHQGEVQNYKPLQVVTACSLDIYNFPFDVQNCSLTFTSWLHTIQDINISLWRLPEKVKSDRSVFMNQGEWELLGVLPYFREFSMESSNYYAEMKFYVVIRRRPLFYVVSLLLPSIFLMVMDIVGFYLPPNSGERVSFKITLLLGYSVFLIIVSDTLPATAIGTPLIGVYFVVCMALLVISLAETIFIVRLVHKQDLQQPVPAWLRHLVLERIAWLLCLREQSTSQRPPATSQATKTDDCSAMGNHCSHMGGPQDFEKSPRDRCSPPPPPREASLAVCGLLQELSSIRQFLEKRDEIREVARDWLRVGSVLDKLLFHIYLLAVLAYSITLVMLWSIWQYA
Description: Assays for screening 5-HT3a receptor inhibitors (FLIPR calcium assay or aequorin-assisted serotonin receptor assay; dosage response curves). Type of data set: cell-based. From the text: Various known high through-put screening assays can be used to determine the inhibitory effects of a material on the 5-HT3a receptors.
Due to activation of 5HT3 receptor following calcium and sodium influx and the subsequent rapid intracellular calcium and sodium increase, a calcium indicator (e.g., Fluo-4 AM) or a sodium dye can therefore be readily used to detect influx Ca^+2 or Na^+ signal using the Flourometric Imaging Plate Reader (FLIPR) assay to identify agonists or antagonists of 5-HT3a receptors.
The 5-HT3a FLIPR assay can specifically be conducted by the following steps. First, […] (human embryonic kidney) cells stably expressed with h5HT3A receptor are grown in 16-18 ml growth medium in a 75 cm^2 flask for 2-3 days at 37° C. in a mammalian cell culture incubator with 5% CO2 and 90% humidity. The growth medium may contain, for example, DMEM/F12 (1:1, Invitrogen 11039) supplemented with 10% FBS (fetal bovine serum), 100 μg/ml Antibiotic/Antimycotic, and 150 ug/ml G418. The cell medium is then transferred to a 50 ml tube, and the cells are washed with 10 ml PBS. Subsequently, 2 ml of 0.05% Trypsin-EDTA is added to detach cells, and the above cell medium is added back to flask to inactivate trypsin. Next, the cells are transferred back to the above 50 ml tube, which is centrifuged at 850 rpm for 3 minutes to remove medium. The cells obtained from centrifugation are then re-suspended with growth medium at 1-1.5 ml per flask cells. One vial of Fluo-4 AM (calcium indicator, 50 ug) is subsequently dissolved with 20 ul of Pluronic F-127, and 10 ul of Fluo-4 AM solution per flask cells is added (1 vial of Fluo-4 AM solution, 20 ul, is good for 2 flask of cells). The cells are then stained with Fluo-4 AM for 30 min at room temperature with gently shaking on a shaker, followed by addition of 45 ml of the assay buffer [HBSS with CaCl2 and MgCl2 (Invitrogen 14025), 20 mM HEPES, pH7.2] to wash cells once. Centrifugation is carried out once more at 850 rpm for 3 minutes to remove assay buffer. The resulting cell pellet is again re-suspended in Assay buffer (per flask cells with 18-20 ml assay buffer). Ninety microliters of cells (50K cells/well) is loaded in the 96-well plates that are pre-loaded with the compounds to be tested (10 ul of 1 mM test materials, the final concentration of the test materials will be 100 uM). The plates are placed at room temperature for 15-30 min in dark and then transferred to FLIPR-384 instrument (Molecular Devices). […] The calcium signal of the test plates is finally recorded by the FLIPR program. The average and standard deviations are calculated using Excel, and the background (buffer) is subtracted. The percentage (%) inhibition is then calculated as
[formula] A test material will be considered as having an inhibitory effect against the 5-HT3a receptor if the percentage inhibition calculated is greater than 40%.
Aequorin is a photo-protein originating from the Jellyfish Aequorea Victoria. It is initially translated as an apo-enzyme requiring the hydrophobic group coelenterazine to initiate the conversion to aequorin. Upon binding of calcium, the coelenterazine is oxidized by aequorin into coelenteramide (BFP) resulting in the emission of blue light and CO2. Therefore, it is particularly useful for visualizing or detecting influx Ca^+2 signal.
After 18-24 h of culture, the cells are detached gently by flushing with their cell culture medium. Washing with an additional 10 mLs of cell culture media will ensure that optimum number of cells is captured. The cells are then centrifuged at 150×g, counted and re-suspended at 1×10^6 cells/mL in BSA medium [DMEM/Ham's F12 (with 15 mM HEPES, L-glutamine, without phenol red) culture medium (Invitrogen, Cat. No. 11039-021)+10% protease-free BSA (Sigma Aldrich, Cat. No. A9205) in H2O with a final BSA concentration of 0.1%] in a Falcon tube. Coelenterazine is added at a final concentration of 5 μM in assay medium.

The values that follow come from patent US10548935B2, “Composition and method for preventing, reducing, alleviating or treating idiopathic vomiting” (Mars, Incorporated, priority 2013, dated 2020).

The structures appear in SMILES notation.

T1 sequence (P25103 whole entry): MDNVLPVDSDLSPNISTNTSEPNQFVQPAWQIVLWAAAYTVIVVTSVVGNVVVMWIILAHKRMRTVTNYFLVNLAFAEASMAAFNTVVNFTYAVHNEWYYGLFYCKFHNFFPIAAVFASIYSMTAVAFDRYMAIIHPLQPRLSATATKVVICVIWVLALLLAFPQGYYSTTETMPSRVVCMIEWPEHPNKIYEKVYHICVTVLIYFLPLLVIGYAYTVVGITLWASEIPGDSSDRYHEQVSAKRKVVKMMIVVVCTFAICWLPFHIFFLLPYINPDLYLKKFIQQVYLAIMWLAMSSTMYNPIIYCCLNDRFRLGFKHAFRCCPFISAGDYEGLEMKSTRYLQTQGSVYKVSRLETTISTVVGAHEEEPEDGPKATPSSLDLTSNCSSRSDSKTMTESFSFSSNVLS

For the compound `O=c1cc(-c2ccc(O)cc2)oc2cc(O)cc(O)c12` [Apigenin], at NK-1 receptor, the “NK-1 receptor inhibitory effect” value is given as “surprisingly high”. Also, the cell toxicity entry in “Cell toxicity” is reported as “little or no”.
`CCCC/C=C/C=C/C=O` [Trans,trans-2,4-nonadienal]: the “NK-1 receptor inhibitory effect” value at NK-1 receptor is “surprisingly high”. In addition, the cell toxicity result in “Cell toxicity” is “little or no”.
On to `O=C(/C=C/c1ccc(O)cc1)c1ccccc1` [4-Hydroxychalcone], for which, at NK-1 receptor, the “NK-1 receptor inhibitory effect” value is given as “surprisingly high”. For the same compound, the “5-HT3a receptor inhibitory effect” value on h5HT3A receptor is “surprisingly high”. For the same compound, in “Cell toxicity”, the cell toxicity entry was “little or no”.
As for `C[C@H]1[C@H](C)CC[C@]2(C(=O)O)CC[C@]3(C)C(=CC[C@@H]4[C@@]5(C)C[C@@H](O)[C@H](O)[C@@](C)(CO)[C@@H]5CC[C@]43C)[C@H]12` [Asiatic acid], the “NK-1 receptor inhibitory effect” value on NK-1 receptor is on record as “surprisingly high”. In addition, the “5-HT3a receptor inhibitory effect” value at h5HT3A receptor is listed as “surprisingly high”. Besides, in “Cell toxicity”, the cell toxicity result was “little or no”.
As to `O=C(/C=C/c1ccccc1)c1ccccc1` [Chalcone], at NK-1 receptor, the “NK-1 receptor inhibitory effect” value is listed as “surprisingly high”. Further, in the data set “Cell toxicity”, the cell toxicity entry is “little or no”.
Taken in the same sequence, the figures for `CCCCCCCCCCCCCC[C@@H](O)[C@@H](O)[C@@H](N)CO` [Phytosphingosine] were “surprisingly high” and “little or no”.
In the case of `COC1=C(OC)C(=O)C(C)=CC1=O` [Ubiquinone-O], on NK-1 receptor, the “NK-1 receptor inhibitory effect” value is “surprisingly high”. The “5-HT3a receptor inhibitory effect” value on h5HT3A receptor is on record as “surprisingly high”. Further, the cell toxicity entry in the data set “Cell toxicity” is listed as “little or no”.
Consider `CCCCCCCCCCCCCCCC(=O)OC(CC(=O)O)C[N+](C)(C)C.[Cl-]` (racemic) [DL-palmitoylcarnitine chloride], for which the “NK-1 receptor inhibitory effect” value on NK-1 receptor is recorded as “surprisingly high”. The “5-HT3a receptor inhibitory effect” value on h5HT3A receptor is on record as “surprisingly high”. Further, in “Cell toxicity”, the cell toxicity entry is listed as “little or no”.
As for `c1ccc2c(Cc3c[nH]c4ccccc34)c[nH]c2c1` [3,3′-diindolylmethane], at NK-1 receptor, the “NK-1 receptor inhibitory effect” value is “surprisingly high”. In addition, in the data set “Cell toxicity”, the cell toxicity result is on record as “little or no”.
As to `O=C(/C=C/c1ccccc1O)c1ccc(O)cc1O` [2,2′,4′-trihydroxy-chalcone], the “NK-1 receptor inhibitory effect” value at NK-1 receptor is “surprisingly high”. The cell toxicity result in the data set “Cell toxicity” is recorded as “little or no”.
With `CC1=CC(=O)c2ccccc2C1=O` [Menadione], the “NK-1 receptor inhibitory effect” value at NK-1 receptor was “surprisingly high”. Besides, the cell toxicity result in “Cell toxicity” is “little or no”.
Taken in the same sequence, the figures for `O=c1c(-c2ccc(O)cc2)coc2cc(O)cc(O)c12` [Genistein] were “surprisingly high” and “little or no”.
The matching figures for `CC/C=C\CC/C=C/CO` [Trans-2,cis-6-nonadienol]: “surprisingly high” and “little or no”.
Take `CC1(C)[C@@H](O)CC[C@]2(C)[C@H]3C(=O)C=C4[C@@H]5C[C@@](C)(C(=O)O)CC[C@]5(C)CC[C@@]4(C)[C@]3(C)CC[C@@H]12` [18-Beta-glycyrrhetic acid]: at NK-1 receptor, the “NK-1 receptor inhibitory effect” value was “surprisingly high”. Besides, the “5-HT3a receptor inhibitory effect” value on h5HT3A receptor is reported as “surprisingly high”. Moreover, the cell toxicity entry in “Cell toxicity” is listed as “little or no”.
Regarding `O=c1cc(-c2ccc(O)c(O)c2)oc2cc(O)cc(O)c12` [Luteolin], on NK-1 receptor, the “NK-1 receptor inhibitory effect” value is listed as “surprisingly high”. For the same compound, the “5-HT3a receptor inhibitory effect” value on h5HT3A receptor is reported as “surprisingly high”. In addition, the cell toxicity entry in “Cell toxicity” was “little or no”.
Take `Oc1ccc(C=Cc2cc(O)cc(O)c2)cc1` [Resveratrol]: the “NK-1 receptor inhibitory effect” value on NK-1 receptor was “surprisingly high”. For the same compound, the “5-HT3a receptor inhibitory effect” value at h5HT3A receptor is “surprisingly high”.
For `O=c1c(O)c(-c2ccccc2)oc2ccc(O)cc12` [3,6-Dihydroxyflavone], the “NK-1 receptor inhibitory effect” value at NK-1 receptor was “surprisingly high”. Also, the “5-HT3a receptor inhibitory effect” value on h5HT3A receptor is “surprisingly high”. Besides, the cell toxicity result in “Cell toxicity” is recorded as “little or no”.
For the compound `CC/C=C/C=C/C=O` [Trans,trans-2,4-heptadienal], at NK-1 receptor, the “NK-1 receptor inhibitory effect” value is listed as “surprisingly high”. Moreover, in “Cell toxicity”, the cell toxicity result is “little or no”.
Take `COc1cc(/C=C/C(=O)CC(=O)/C=C/c2ccc(O)c(OC)c2)ccc1O` [Curcumin]: on NK-1 receptor, the “NK-1 receptor inhibitory effect” value is “surprisingly high”. The “5-HT3a receptor inhibitory effect” value at h5HT3A receptor is “surprisingly high”.
As to `COc1ccc(/C=C/C=O)cc1` [Trans-4-methoxycinnamaldehyde], the “NK-1 receptor inhibitory effect” value on NK-1 receptor was “surprisingly high”. Also, the cell toxicity entry in the data set “Cell toxicity” is “little or no”.
